Results from publication PMC7251097, “Aspartate/asparagine-β-hydroxylase: a high-throughput mass spectrometric assay for discovery of small molecule inhibitors” (Scientific Reports, 2020).
Structures can show the parent of a compound that is named as a salt. Where two headings read alike, the source gives them in different places.

Molecular target: T1, His6-AspH315–758 (human aspartate/asparagine-β-hydroxylase, AspH) (Homo sapiens, UniProt Q12797)
T1 construct: N-Terminally His6-tagged human AspH315–758 (His6-AspH315–758) was produced in E. coli BL21 (DE3) cells; made in house; host or cells: E. coli BL21 (DE3), pET-28a(+) vector
T1 sequence (Q12797 315-758): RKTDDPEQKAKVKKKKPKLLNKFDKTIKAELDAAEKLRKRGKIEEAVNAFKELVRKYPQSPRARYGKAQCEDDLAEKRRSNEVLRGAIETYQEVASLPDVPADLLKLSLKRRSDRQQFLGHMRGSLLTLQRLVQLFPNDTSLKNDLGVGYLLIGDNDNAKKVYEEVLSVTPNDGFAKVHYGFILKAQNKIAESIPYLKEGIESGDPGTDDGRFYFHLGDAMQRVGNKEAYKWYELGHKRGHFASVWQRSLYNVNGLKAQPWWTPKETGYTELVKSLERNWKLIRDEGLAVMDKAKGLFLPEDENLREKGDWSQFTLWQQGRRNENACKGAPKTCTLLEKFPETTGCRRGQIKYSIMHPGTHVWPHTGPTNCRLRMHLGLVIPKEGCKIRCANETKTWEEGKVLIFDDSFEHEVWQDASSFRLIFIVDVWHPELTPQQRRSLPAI
Assay: SPE-MS AspH inhibition assay (LOPAC screen at fixed 20 μM and IC50 dose-response), hydroxylation of cyclic peptide hFX-CP101–119
Format: biochemical

[1] = LOPAC Plate 4, compound at 20 uM, substrate conversion
[2] = LOPAC compound at 20uM, plate 2, conversion of substrate peptide
[3] = LOPAC compound at 20uM, plate 2, normalised to DMSO and 2,4-PDCA controls
[4] = LOPAC compound at 20uM, plate 2, normalised to DMSO and 2,4-PDCA controls, read-out: Plate 2 (% inhibition)
[5] = LOPAC compound at fixed 20 uM, plate 1, normalised to DMSO and 2,4-PDCA controls
[6] = LOPAC compound at fixed 20 uM, substrate conversion, plate 1
[7] = LOPAC Plate 4, compound at 20 uM, read-out: % inhibition

O=C1Cc2cc(CCN3CCN(c4nsc5ccccc45)CC3)c(Cl)cc2N1 [Ziprasidone hydrochloride monohydrate]
% conversion [1]: 26.15%

COc1cc(C(O)C(=O)O)ccc1O (racemic) [(±)-Vanillylmandelic acid]
Plate 2 (% conversion) [2]: 32.67% | Plate 2 (% inhibition) [3]: 9.80%

C=CCc1cccc(/C=N/NC(=O)CN2CCN(Cc3ccccc3)CC2)c1O [PAC-1, reference compound]
IC50 (50 nM His6-AspH315–758, 1.0 μM hFX-CP101–119, 3 μM 2OG, 2 μM Fe(II), 50 mM HEPES pH 7.5, 20 °C, mean ± SD, n = 2 (2,4-PDCA n = 10), read-out: IC50): 3.53 ± 0.71 µM | Inhibition at 20 µM [%] (AspH activity, fixed compound concentration 20 μM, initial LOPAC screen, 0.5%v/v DMSO): 96.1% | % conversion [1]: 3.66%

CCCN[C@H]1CCc2nc(N)sc2C1 [Pramipexole dihydrochloride]
% conversion [1]: 39.77%

CNCCCN1c2ccccc2CCc2ccccc21 [Desipramine hydrochloride]
Plate 2 (% conversion) [2]: 40.94% | inhibition at 20 µM [4]: -14.9%

Cn1c(=O)c2[nH]c(C3CCCC3)nc2n(C)c1=O [8-Cyclopentyl-1,3-dimethylxanthine]
Plate 2 (% conversion) [2]: 36.70% | Plate 2 (% inhibition) [3]: -2.21%

Nc1nc(Cl)nc2c1ncn2[C@@H]1O[C@H](CO)[C@@H](O)[C@H]1O [2-Chloroadenosine]
Plate 1 (% inhibition) [5]: -4.87% | Plate 1 (% conversion) [6]: 37.51%

CCN(CC)CCOC(=O)c1ccc(N)cc1 [Procaine hydrochloride]
% conversion [1]: 34.46% | inhibition at 20 µM [7]: 5.88%

C[C@@]12N[C@@H](Cc3ccccc31)c1ccccc12.O=C(O)/C=C\C(=O)O [(-)-MK-801 hydrogen maleate]
Plate 3 (% conversion): 36.17%

Brc1c(NC2=NCCN2)ccc2nccnc12 [UK 14,304]
% conversion: 39.75% | % inhibition (20 µM): -9.62%

CNCCCC1c2ccccc2C=Cc2ccccc21 [Protriptyline hydrochloride]
% conversion [1]: 29.36% | inhibition at 20 µM [7]: 20.8%

C=CC1=C(C)c2cc3[nH]c(cc4nc(cc5[nH]c(cc1n2)c(C)c5CCC(=O)O)C(CCC(=O)O)=C4C)c(C)c3C=C [Protoporphyrin IX disodium]
% conversion [1]: 20.78% | inhibition at 20 µM [7]: 46%

COc1ccccc1CN[C@H]1CCCN[C@H]1c1ccccc1 [CP-100263]
Plate 5 (% conversion): 33.08% | Plate 5 (% inhibition): 9.51%

CCN(CC)CCCN(c1ccccc1)C1Cc2ccccc2C1 [Aprindine hydrochloride]
% conversion [1]: 34.60%

Cc1[nH]c(/C=C2\C(=O)Nc3ccc(S(=O)(=O)Cc4c(Cl)cccc4Cl)cc32)c(C)c1C(=O)N1CCC[C@@H]1CN1CCCC1 [PHA-665752]
Plate 5 (% inhibition) (plate 5 (Pfitzer), test compounds at fixed 20 μM): -100.36% | Plate 5 (% conversion) (plate 5 (Pfitzer), test compounds at fixed 20 μM, mean conversion DMSO 32.88): 70.47%

O=[N+]([O-])c1cccc2c(Br)n[nH]c12 [3-Bromo-7-nitroindazole]
Plate 1 (% inhibition) [5]: 1.81% | Plate 1 (% conversion) [6]: 35.26%

CN1C2CCC1CC(OC(=O)c1c[nH]c3ccccc13)C2.Cl (stereo not shown)
% conversion: 31.98%

C=CCc1ccccc1OCC(O)CNC1(C)CCC(C(C)(C)NC(=O)CBr)CC1 (stereo not shown) [Bromoacetyl alprenolol menthane]
Plate 1 (% conversion): 65.73% | Plate 1 (% inhibition): -88.92%

C=CCN1C[C@H](C)N([C@H](c2ccc(C(=O)N(CC)CC)cc2)c2cccc(OC)c2)C[C@H]1C [SNC80]
% conversion: 40.53% | % inhibition (20 µM): -11.89%

Clc1ccc2c(c1)N=C(N1CCNCC1)c1ccccc1N2 [N-Desmethylclozapine]
inhibition at 20 µM [4]: -3.91%

CCCCNC(=O)NS(=O)(=O)c1ccc(C)cc1 [Tolbutamide]
% conversion [1]: 37.22% | inhibition at 20 µM [7]: -2.2%

NC(=O)NO [Hydroxyurea]
Plate 2 (% conversion) [2]: 37.94% | Plate 2 (% inhibition) [3]: -5.92%

N[C@@H](Cc1c[nH]c2ccc(O)cc12)C(=O)O [5-Hydroxy-L-tryptophan]
Plate 2 (% conversion) [2]: 37.59% | inhibition at 20 µM [4]: -4.87%

N[C@@H](Cc1ccc(O)c(O)c1)C(=O)O [L-3,4-Dihydroxyphenylalanine]
Plate 2 (% conversion) [2]: 10.03% | Plate 2 (% inhibition) [3]: 77.43%

CSc1ccccc1N1CCN(CCCCCC(=O)NC2CCCc3ccccc32)CC1 (stereo not shown) [LP44]
Plate 3 (% conversion) (LOPAC compound at 20uM, plate 3, conversion of substrate peptide): 36.33%

Cc1cccc(-c2[nH]ncc2-c2ccc3ncccc3n2)n1 [RepSox]
Plate 2 (% conversion): 40.48% | Plate 2 (% inhibition) (20 µM): -13.51%
